Laboratory results from US20240254114A1, “PREPARATION OF FUSED AZOLE DERIVATIVES AS NOVEL DIACYLGLYCERIDE 0-ACYLTRANSFERASE 2 INHIBITORS” (Merck Sharp & Dohme LLC, priority 2022, published 2024).

These compounds were tested against human DGAT2 (Homo sapiens (Human), UniProt Q96PD7) (assay: DGAT2 Enzymatic Activity Assay). Conditions: Human DGAT2 IC50, hDGAT2 membrane prep from Sf-9 cells; 13C18-triolein product by LC/MS/MS.
Chain of human DGAT2 (Q96PD7 whole entry): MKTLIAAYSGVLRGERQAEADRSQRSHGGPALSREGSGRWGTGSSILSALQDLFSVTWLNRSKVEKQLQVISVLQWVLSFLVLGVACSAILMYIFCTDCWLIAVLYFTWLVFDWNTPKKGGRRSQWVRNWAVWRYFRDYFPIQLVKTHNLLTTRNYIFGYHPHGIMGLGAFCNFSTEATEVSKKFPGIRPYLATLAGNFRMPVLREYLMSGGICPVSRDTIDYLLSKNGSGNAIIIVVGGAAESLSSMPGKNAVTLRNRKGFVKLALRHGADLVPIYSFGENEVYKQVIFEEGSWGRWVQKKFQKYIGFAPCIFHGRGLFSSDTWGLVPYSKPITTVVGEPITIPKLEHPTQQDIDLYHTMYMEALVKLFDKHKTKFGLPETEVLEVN
Protocol: Sf-9 insect cells were maintained in Grace's insect cell culture medium with 10% heated-inactivated fetal bovine serum, 1% Pluronic F-68 and 0.14 μg/ml Kanamycine sulfate at 27° C. in a shaker incubator. After infection with untagged baculovirus expressing human DGAT2 (hDGAT2) at multiplicity of infection (MOI) 3 for 48 hours, cells were harvested. Cell pellets were suspended in buffer containing 10 mM Tris-HCl pH 7.5, 1 mM EDTA, 250 mM sucrose and Complete Protease Inhibitor Cocktail (Sigma Aldrich), and sonicated on ice. Cell debris were removed by centrifugation at 2000×g for 15 minutes. Membrane fractions were isolated by ultracentrifugation (100,000×g), resuspended in the same buffer, and frozen (−80° C.) for later use. The protein concentration was determined with the Pierce™ BCA Protein Assay Kit (Thermo Fisher Scientific).
LC/MS/MS analyses were performed using Thermal Fisher's LX4-TSQ Vantage system. This system consists of an Agilent binary high-performance liquid chromatography (HPLC) pump and a TSQ Vantage triple quadrupole MS/MS instrument. For each sample, 2 μL samples from the top organic layer of in-plate liquid-liquid extraction were injected onto a Thermo Betabasic C4 column (2.1 mm×20 mm, 5 μm particle size). The samples were then eluted using the following conditions; mobile phase: Isopropanol: acetonitrile/10 mM ammonium formate=50/35/15 (v/v/v), flow rate: 0.8 mL/min, temperature: 25° C. Data was acquired in positive mode using a heated electrospray ionization (HESI) interface. […] The peak area was integrated by Xcalibur Quan software. The ratio between the ^13C18 triolein generated in the reaction and spiked in internal standard ^13C21-triolein was used to generate percentage inhibition and IC50 values. […] DGAT2 activity was determined by measuring the amount of enzymatic product ^13C18-triolein (^13C-1,2,3-Tri(cis-9-octadecenoyl)glycerol) using the membrane prep mentioned above. The assay was carried out in ABgene 384-well assay plates in a final volume of 25 μL at rt.
With Cn1c(C(=O)NC2(C)CCS(=O)(=O)CC2)nc2ccc(Oc3ncccc3OCC(F)(F)F)cc21 [Example 11, 1-Methyl-N-(4-methyl-1,1-dioxidotetrahydro-2H-thiopyran-4-yl)-6-((3-(2,2,2-trifluoroethoxy)pyridin-2-yl)oxy)-1H-benzo[d]imidazole-2-carboxamide] the IC50 was 1.3 nM. CC1(NC(=O)c2nc3cnc(Oc4ncc(Cl)cc4OCC(F)F)cc3s2)CCS(=O)(=O)CC1 [Example 97, 6-[[5-chloro-3-(2,2-difluoroethoxy)-2-pyridyl]oxy]-N-(4-methyl-1,1-dioxo-thian-4-yl)thiazolo[4,5-c]pyridine-2-carboxamide] was tested, and the IC50 was 2.5 nM. Cn1c(C(=O)NC2(C)CCS(=O)(=O)CC2)nc2ncc(Oc3ncc(Cl)cc3OCC(F)F)cc21 [Example 82, 6-[[5-Chloro-3-(2,2-difluoroethoxy)-2-pyridyl]oxy]-1-methyl-N-(4-methyl-1,1-dioxo-thian-4-yl)imidazo[4,5-b]pyridine-2-carboxamide] was tested, and the IC50 was 1.2 nM. With Cn1c(C(=O)NC2(C)CCS(=O)(=O)CC2)nc2ccc(OCC(OCC(F)F)C(F)F)nc21 (single isomer, unassigned) [Example 65b, 5-[2-(2,2-difluoroethoxy)-3,3-difluoro-propoxy]-3-methyl-N-(4-methyl-1,1-dioxo-thian-4-yl)imidazo[4,5-b]pyridine-2-carboxamide] the IC50 was 2.8 nM. Cn1c(C(=O)NC2(C)CCS(=O)(=O)CC2)nc2ccc(Oc3ncc(Cl)cc3OCC(F)(F)F)c(Cl)c21 [Example 23, 7-Chloro-6-((5-chloro-3-(2,2,2-trifluoroethoxy)pyridin-2-yl)oxy)-1-methyl-N-(4-methyl-1,1-dioxidotetrahydro-2H-thiopyran-4-yl)-1H-benzo[d]imidazole-2-carboxamide] was tested, and the IC50 was 2.2 nM. CC1(NC(=O)c2nc3ccc(Oc4ncccc4OCC(F)(F)F)cc3s2)CCS(=O)(=O)CC1 [Example 91, N-(4-Methyl-1,1-dioxidotetrahydro-2H-thiopyran-4-yl)-6-((3-(2,2,2-trifluoroethoxy)pyridin-2-yl)oxy)benzo[d]thiazole-2-carboxamide] was tested, and the IC50 was 1.3 nM. With Cn1c(C(=O)NC2(C)CCS(=O)(=O)CC2)nc2cnc(OCc3ncc(Cl)cc3OCC(F)F)cc21 [Example 80, 6-((5-Chloro-3-(2,2-difluoroethoxy)pyridin-2-yl)methoxy)-1-methyl-N-(4-methyl-1,1-dioxidotetrahydro-2H-thiopyran-4-yl)-1H-imidazo[4,5-c]pyridine-2-carboxamide] the IC50 was 30 nM. In the case of Cc1c(Oc2ncc(Cl)cc2OCC(F)(F)F)ccc2nc(C(=O)NC3(C)CCS(=O)(=O)CC3)n(C)c12 [Example 25, 6-((5-chloro-3-(2,2,2-trifluoroethoxy)pyridin-2-yl)oxy)-1,7-dimethyl-N-(4-methyl-1,1-dioxidotetrahydro-2H-thiopyran-4-yl)-1H-benzo[d]imidazole-2-carboxamide], the IC50 is reported as 0.6 nM. Cn1c(C(=O)NC2(C)CCS(=O)(=O)CC2)nc2ccc(OCC(CC(F)(F)F)OCC(F)F)nc21 (single isomer, unassigned) [Example 63b, 5-[2-(2,2-difluoroethoxy)-4,4,4-trifluoro-butoxy]-3-methyl-N-(4-methyl-1,1-dioxo-thian-4-yl)imidazo[4,5-b]pyridine-2-carboxamide] gave an IC50 of 0.8 nM. CC1(NC(=O)c2nc3ccc(Oc4ncc(Cl)cc4OCC(F)F)nc3s2)CCS(=O)(=O)CC1 [Example 94, 5-((5-Chloro-3-(2,2-difluoroethoxy)pyridin-2-yl)oxy)-N-(4-methyl-1,1-dioxidotetrahydro-2H-thiopyran-4-yl)thiazolo[5,4-b]pyridine-2-carboxamide] was tested, and the IC50 was 2 nM. Cn1c(C(=O)NC2(C)CCS(=O)(=O)CC2)nc2ccc(Oc3ncc(F)cc3OCC(F)(F)F)nc21 [Example 29, 5-((5-Fluoro-3-(2,2,2-trifluoroethoxy)pyridin-2-yl)oxy)-3-methyl-N-(4-methyl-1,1-dioxidotetrahydro-2H-thiopyran-4-yl)-3H-imidazo[4,5-b]pyridine-2-carboxamide] gave an IC50 of 12 nM. In the case of Cn1c(C(=O)NC2(C)CCS(=O)(=O)CC2)nc2c(F)c(Oc3ncc(Cl)cc3OCC(F)(F)F)ccc21 [Example 22, 5-((5-chloro-3-(2,2,2-trifluoroethoxy)pyridin-2-yl)oxy)-4-fluoro-1-methyl-N-(4-methyl-1,1-dioxidotetrahydro-2H-thiopyran-4-yl)-1H-benzo[d]imidazole-2-carboxamide], the IC50 is reported as 604 nM. CC(C)n1c(C(=O)NC2(C)CCS(=O)(=O)CC2)nc2ccc(Oc3ncc(Cl)cc3OCC(F)F)nc21 [Example 52, 5-((5-chloro-3-(2,2-difluoroethoxy)pyridin-2-yl)oxy)-3-isopropyl-N-(4-methyl-1,1-dioxidotetrahydro-2H-thiopyran-4-yl)-3H-imidazo[4,5-b]pyridine-2-carboxamide] was tested, and the IC50 was 3.6 nM. Cn1c(C(=O)NC2(C)CCS(=O)(=O)CC2)cc2ccc(Oc3ncc(Cl)cc3OCC(F)F)nc21 [Example 99, 6-((5-Chloro-3-(2,2-difluoroethoxy)pyridin-2-yl)oxy)-1-methyl-N-(4-methyl-1,1-dioxidotetrahydro-2H-thiopyran-4-yl)-1H-pyrrolo[2,3-b]pyridine-2-carboxamide] was tested, and the IC50 was 1.1 nM. Cc1nc2nc(C(=O)NC3(C)CCS(=O)(=O)CC3)n(C)c2cc1Oc1ncc(Cl)cc1OCC(F)F [Example 86, 6-[[5-Chloro-3-(2,2-difluoroethoxy)-2-pyridyl]oxy]-1,5-dimethyl-N-(4-methyl-1,1-dioxo-thian-4-yl)imidazo[4,5-b]pyridine-2-carboxamide] gave an IC50 of 39 nM. With CC(C)n1c(C(=O)NC2(C)CCS(=O)(=O)CC2)nc2nc(Oc3ncc(Cl)cc3OCC(F)F)ccc21 [Example 51, 5-((5-chloro-3-(2,2-difluoroethoxy)pyridin-2-yl)oxy)-1-isopropyl-N-(4-methyl-1,1-dioxidotetrahydro-2H-thiopyran-4-yl)-1H-imidazo[4,5-b]pyridine-2-carboxamide] the IC50 was 533 nM. CC1(NC(=O)c2nc3ccc(Oc4ncc(Cl)cc4OCC(F)F)nc3[nH]2)CCS(=O)(=O)CC1 [Example 50, 5-((5-chloro-3-(2,2-difluoroethoxy)pyridin-2-yl)oxy)-N-(4-methyl-1,1-dioxidotetrahydro-2H-thiopyran-4-yl)-3H-imidazo[4,5-b]pyridine-2-carboxamide] gave an IC50 of 15 nM.

Same assay, conditions: read-out: Human DGAT2 IC50; hDGAT2 membrane prep from Sf-9 cells; 13C18-triolein product by LC/MS/MS
Cn1c(C(=O)NC2(C)CCS(=O)(=O)CC2)nc2cc(F)c(Oc3ncc(F)cc3OCC(F)(F)F)nc21 [Example 42, 6-fluoro-5-((5-fluoro-3-(2,2,2-trifluoroethoxy)pyridin-2-yl)oxy)-3-methyl-N-(4-methyl-1,1-dioxidotetrahydro-2H-thiopyran-4-yl)-3H-imidazo[4,5-b]pyridine-2-carboxamide] showed an IC50 of 2.2 nM. For Cn1c(C(=O)NC2(C)CCS(=O)(=O)CC2)nc2cnc(Oc3ncc(F)cc3OCC(F)F)cc21 [Example 72, 6-[[3-(2,2-difluoroethoxy)-5-fluoro-2-pyridyl]oxy]-1-methyl-N-(4-methyl-1,1-dioxo-thian-4-yl)imidazo[4,5-c]pyridine-2-carboxamide], the IC50 was 6.9 nM. Cn1c(C(=O)NC2(C)CCS(=O)(=O)CC2)nc2cnc(Oc3ncc(F)cc3OCC(F)(F)F)cc21 [Example 68, 6-[[5-fluoro-3-(2,2,2-trifluoroethoxy)-2-pyridyl]oxy]-1-methyl-N-(4-methyl-1,1-dioxo-thian-4-yl)imidazo[4,5-c]pyridine-2-carboxamide] was tested, and the IC50 was 27 nM. In the case of Cc1cnc(Oc2ccc3nc(C(=O)NC4(C)CCS(=O)(=O)CC4)n(C)c3n2)c(OCC(F)F)c1 [Example 37, 5-[[3-(2,2-difluoroethoxy)-5-methyl-2-pyridyl]oxy]-3-methyl-N-(4-methyl-1,1-dioxo-thian-4-yl)imidazo[4,5-b]pyridine-2-carboxamide], the IC50 is reported as 29 nM. With Cc1c(Oc2ncc(F)cc2OCC(F)(F)F)cnc2nc(C(=O)NC3(C)CCS(=O)(=O)CC3)n(C)c12 [Example 85, 6-[[5-fluoro-3-(2,2,2-trifluoroethoxy)-2-pyridyl]oxy]-1,7-dimethyl-N-(4-methyl-1,1-dioxo-thian-4-yl)imidazo[4,5-b]pyridine-2-carboxamide] the IC50 was 175 nM. With CO[C@]1(C(F)(F)F)C[C@H](NC(=O)c2nc3ccc(Oc4ncc(Cl)cc4OCC(F)(F)F)cc3o2)C1 [Example 6, 6-[[5-chloro-3-(2,2,2-trifluoroethoxy)-2-pyridyl]oxy]-N-[3-methoxy-3-(trifluoromethyl)cyclobutyl]-1,3-benzoxazole-2-carboxamide] the IC50 was 900 nM. Compound CC1(NC(=O)c2nc3ccc(Oc4ncc(Cl)cc4OCC(F)(F)F)cc3o2)CCC(F)(F)CC1 [Example 9, 6-[[5-chloro-3-(2,2,2-trifluoroethoxy)-2-pyridyl]oxy]-N-(4,4-difluoro-1-methyl-cyclohexyl)-1,3-benzoxazole-2-carboxamide] has an IC50 of 29 nM. In the case of CC1(NC(=O)c2nc3ccc(Oc4ncc(Cl)cc4OCC(F)F)nc3n2CC(F)F)CCS(=O)(=O)CC1 [Example 54, 5-((5-chloro-3-(2,2-difluoroethoxy)pyridin-2-yl)oxy)-3-(2,2-difluoroethyl)-N-(4-methyl-1,1-dioxidotetrahydro-2H-thiopyran-4-yl)-3H-imidazo[4,5-b]pyridine-2-carboxamide], the IC50 is reported as 0.6 nM. Cn1c(C(=O)NC2(C)CS(=O)(=O)C2)nc2ccc(Oc3ncccc3OCC(F)(F)F)nc21 [Example 35, 3-methyl-N-(3-methyl-1,1-dioxidothietan-3-yl)-5-((3-(2,2,2-trifluoroethoxy)pyridin-2-yl)oxy)-3H-imidazo[4,5-b]pyridine-2-carboxamide] showed an IC50 greater than 9990 nM. CC1(NC(=O)c2nc3ccc(Oc4ncc(Cl)cc4OCC(F)(F)F)cc3o2)CCS(=O)(=O)CC1 [Example 3, 6-[[5-chloro-3-(2,2,2-trifluoroethoxy)-2-pyridyl]oxy]-N-(4-methyl-1,1-dioxo-thian-4-yl)-1,3-benzoxazole-2-carboxamide] was tested, and the IC50 was 63 nM. Cn1c(C(=O)NC2(C)CS(=O)(=O)C2)nc2ccc(Oc3ncc(F)cc3OCC(F)F)nc21 [Example 36, 5-[[3-(2,2-difluoroethoxy)-5-fluoro-2-pyridyl]oxy]-3-methyl-N-(3-methyl-1,1-dioxo-thietan-3-yl)imidazo[4,5-b]pyridine-2-carboxamide] was tested, and the IC50 was 42 nM.
